Experimental data reported in US20100196932A1, “Yeast Reporter System” (THE BOARD OF TRUSTEES OF THE UNIVERSITY OF ILLINOIS, priority 2006, published 2010).

Key:
AβMRF [1] = type: cell-based, S. cerevisiae
Aβm1MRF = type: cell-based, S. cerevisiae
Aβm2MRF = type: cell-based, S. cerevisiae
AβMRF [2] = type: cell-based, S. cerevisiae; remark: listed apart in the source
Hsp104 = Hsp104 (Saccharomyces cerevisiae, UniProt P31539); settings: cited from earlier work
[3] = target: the molecule itself; test: SDS electrophoresis (1% SDS, room temperature) and immunoblot of yeast lysates
Hsp104 (yeast chaperone) = Hsp104 (yeast chaperone) (yeast S. cerevisiae, UniProt P31539 1-908); test: co-immunoprecipitation from yeast lysate with anti-HA agarose beads, immunoblot with anti-Hsp104
Method: FIG. 7. […] Co-precipitated proteins were eluted and analyzed by immunoblotting with anti-RF and anti-Hsp104 antibodies.
Following incubation, the beads were washed three times with 0.5 ml of phosphate buffered saline containing 0.05% Tween 20 to remove the non-specifically bound proteins.

[4] = target: the molecule itself; test: self-oligomerization; SDS electrophoresis and immunoblot of yeast lysates

Chain of Hsp104 (yeast chaperone) (P31539 whole entry): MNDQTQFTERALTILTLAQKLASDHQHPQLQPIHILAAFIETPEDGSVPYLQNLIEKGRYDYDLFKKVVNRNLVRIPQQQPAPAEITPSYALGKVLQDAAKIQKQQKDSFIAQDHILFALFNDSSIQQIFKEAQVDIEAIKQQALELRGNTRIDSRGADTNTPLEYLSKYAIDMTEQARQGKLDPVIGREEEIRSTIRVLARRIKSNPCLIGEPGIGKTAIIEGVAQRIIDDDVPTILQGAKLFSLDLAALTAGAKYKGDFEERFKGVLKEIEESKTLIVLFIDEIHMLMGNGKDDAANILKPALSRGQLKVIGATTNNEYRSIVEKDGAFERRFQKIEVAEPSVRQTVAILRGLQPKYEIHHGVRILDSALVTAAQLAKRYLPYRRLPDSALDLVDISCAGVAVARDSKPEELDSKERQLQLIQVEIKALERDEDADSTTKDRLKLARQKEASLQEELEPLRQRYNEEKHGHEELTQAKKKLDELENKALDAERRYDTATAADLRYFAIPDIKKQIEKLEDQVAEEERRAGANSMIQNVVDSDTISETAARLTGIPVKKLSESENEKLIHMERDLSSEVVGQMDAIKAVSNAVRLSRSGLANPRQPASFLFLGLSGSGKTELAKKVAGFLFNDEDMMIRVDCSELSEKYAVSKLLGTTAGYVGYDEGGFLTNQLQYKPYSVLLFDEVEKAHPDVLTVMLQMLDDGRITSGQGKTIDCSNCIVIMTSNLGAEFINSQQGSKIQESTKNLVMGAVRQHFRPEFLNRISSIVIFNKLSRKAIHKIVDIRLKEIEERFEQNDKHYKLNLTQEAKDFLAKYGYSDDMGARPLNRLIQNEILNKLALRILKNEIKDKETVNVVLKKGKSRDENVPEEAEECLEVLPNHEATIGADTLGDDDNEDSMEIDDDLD
Chain of Hsp104 (P31539 whole entry): as above

guanidine hydrochloride
amount of AβMRF oligomers (AβMRF [1]): dramatically increased
monomeric pool of AβMRF (AβMRF [1]): depleting the monomeric pool
amount of Aβm1MRF oligomers (Aβm1MRF): dramatically increased
monomeric pool of Aβm1MRF (Aβm1MRF): depleting the monomeric pool
effect on oligomers/monomers of control Aβm2MRF protein (Aβm2MRF): No such effect was detected
oligomerization of AβMRF in the absence of HSP104 (AβMRF [2]): stimulated oligomerization of AβMRF
ATPase activity of Hsp104 (Hsp104): inhibited by millimolar concentrations

B1: MRF (HA-tagged Sup35p without the 123 N-terminal amino acids, plasmid p1366) (other, yeast S. cerevisiae, UniProt P05453 124-253, looked up, not shown: small tags and cut ends)
chain: MSLNDFQKQQKQAAPKPKKTLKLVSSSGIKLANATKKVGTKPAESDKKEEEKSAETKEPTKEPTKVEEPVKKEEKPVQTEEKTEEKSELPKVEDLKISESTHNTNNANVTSADALIKEQEEEVDDEVVNDMFGGKDHVSLIFMGHVDAGKSTMGGNLLYLTGSVDKRTIEKYEREAKDAGRQGWYLSWVMDTNKEERNDGKTIEVGKAYFETEKRRYTILDAPGHKMYVSEMIGGASQADVGVLVISARKGEYETGFERGGQTREHALLAKTQGVNKMVVVVNKMDDPTVNWSKERYDQCVSNVSNFLRAIGYNIKTDVVFMPVSGYSGANLKDHVDPKECPWYTGPTLLEYLDTMNHVDRHINAPFMLPIAAKMKDLGTIVEGKIESGHIKKGQSTLLMPNKTAVEIQNIYNETENEVDMAMCGEQVKLRIKGVEEEDISPGFVLTSPKNPIKSVTKFVAQIAIVELKSIIAAGFSCVMHVHTAIEEVHIVKLLHKLEKGTNRKSKKPPAFAKKGMKVIAVLETEAPVCVETYQDYPQLGRFTLRDQGTTIAIGKIVKIAE
notes: domain: M;domain: RF; also called HA-tagged MRF; Sup35p without the N-terminal prion domain
binding result [3]: no binding
binding result (Hsp104 (yeast chaperone)): no binding

B2: Aβm1MRF (Aβ42 F19,20T MRF, plasmid p1397) (other, yeast S. cerevisiae, not shown: small tags and cut ends)
chain: MDAEFRHDSGYEVHHQKLVTTAEDVGSNKGAIIGLMVGGVVIAMSLNDFQKQQKQAAPKPKKTLKLVSSSGIKLANATKKVGTKPAESDKKEEEKSAETKEPTKEPTKVEEPVKKEEKPVQTEEKTEEKSELPKVEDLKISESTHNTNNANVTSADALIKEQEEEVDDEVVNDMFGGKDHVSLIFMGHVDAGKSTMGGNLLYLTGSVDKRTIEKYEREAKDAGRQGWYLSWVMDTNKEERNDGKTIEVGKAYFETEKRRYTILDAPGHKMYVSEMIGGASQADVGVLVISARKGEYETGFERGGQTREHALLAKTQGVNKMVVVVNKMDDPTVNWSKERYDQCVSNVSNFLRAIGYNIKTDVVFMPVSGYSGANLKDHVDPKECPWYTGPTLLEYLDTMNHVDRHINAPFMLPIAAKMKDLGTIVEGKIESGHIKKGQSTLLMPNKTAVEIQNIYNETENEVDMAMCGEQVKLRIKGVEEEDISPGFVLTSPKNPIKSVTKFVAQIAIVELKSIIAAGFSCVMHVHTAIEEVHIVKLLHKLEKGTNRKSKKPPAFAKKGMKVIAVLETEAPVCVETYQDYPQLGRFTLRDQGTTIAIGKIVKIAE
notes: domain: M;domain: RF; also called Aβ^F19,20TMRF
binding result [4]: binds
